According to patent US8309558B2, “Compounds for the treatment of hepatitis C” (Bristol-Myers Squibb Company, priority 2008, dated 2012):
Like-named read-outs stand apart in the source and are kept apart here.

What was measured:
[1] = target: T1, HCV NS5B RdRp genotype 1b (Hepatitis C virus genotype 1b, UniProt Q9WMX2); experiment: Standard HCV NS5B RdRp enzyme assay; assay type: biochemical; conditions: HCV NS5B RdRp genotype 1b, read-out: IC50
T1 construct: The protein was expressed with an 18 amino acid C-terminal truncation to enhance the solubility; made in house; host or cells: E. coli BL21(DE3), pET21a vector
Summary of the method: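 Radiometric SPA measuring 3H-UMP incorporation on polyA/biotin-oligo-dT12 (6 nM/180 nM), 0.29 μM total UTP. Enzyme: NS5B 1b lacking last 18 residues, 28 nM final, 30° C for 60 min in 20 mM Hepes pH 7.5, 2.5 mM MgCl2, 2% DMSO. IC50 from seven-point curves.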

[2] = system: HCV replicon cells; experiment: HCV replicon FRET / luciferase assay (96-well plates); assay type: cell-based; conditions: Hepatitis C virus, HCV replicon, read-out: EC50
Summary of the method: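 Readout was NS3 protease cleavage of an EDANS/DABCYL FRET peptide (20 μM final) in lysed HCV replicon cells, or Renilla luciferase in reporter replicons. Background came from wells with the highest level of control protease inhibitor. EC50 marked the concentration giving 50% signal reduction.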

T1 sequence (Q9WMX2 2420-2992): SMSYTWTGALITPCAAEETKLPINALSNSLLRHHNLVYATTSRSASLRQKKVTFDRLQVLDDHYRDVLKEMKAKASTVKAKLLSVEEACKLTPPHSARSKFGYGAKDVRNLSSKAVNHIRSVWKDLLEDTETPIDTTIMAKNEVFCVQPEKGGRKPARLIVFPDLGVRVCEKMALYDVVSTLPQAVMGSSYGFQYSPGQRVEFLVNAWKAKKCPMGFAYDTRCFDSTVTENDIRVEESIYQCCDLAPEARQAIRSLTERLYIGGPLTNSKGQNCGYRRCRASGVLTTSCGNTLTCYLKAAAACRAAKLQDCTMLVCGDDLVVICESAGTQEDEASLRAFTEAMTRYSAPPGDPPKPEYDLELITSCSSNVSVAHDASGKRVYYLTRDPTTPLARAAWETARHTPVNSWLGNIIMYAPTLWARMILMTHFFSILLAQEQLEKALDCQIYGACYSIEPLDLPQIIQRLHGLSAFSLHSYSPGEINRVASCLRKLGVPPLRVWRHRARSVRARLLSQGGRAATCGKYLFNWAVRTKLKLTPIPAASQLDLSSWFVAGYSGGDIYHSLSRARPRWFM

Compound | IC50 ([1]; Table 1b) [nM] | EC50 ([2]; Table 1b) [nM] | IC50 ([1]; Table 1a) [nM] | EC50 ([2]; Table 1a) [nM] | further results
CNC(=O)c1c(-c2ccc(F)cc2)oc2ccc(-c3ccc(-c4cncc(N)c4)c(C(=O)NCC(C)C)c3)cc12 | < 250 | 250 to 1000 | – | – | –
CNC(=O)c1c(-c2ccc(F)cc2)oc2ccc(-c3cccc(C(=O)NC4(c5ccccc5)CCC4)c3)cc12 | – | – | < 250 | < 250 | –
CNC(=O)c1c(-c2ccc(F)cc2)oc2ccc(-c3cc(OC(C)C)cc(C(=O)NCC(C)C)c3)cc12 | 1000 to 10000 | > 10000 | – | – | –
CNC(=O)c1c(-c2ccc(F)cc2)oc2cc([N+](=O)[O-])c(-c3cc(C(=O)NC4(c5ccccc5)CC4)ccc3OC)cc12 | < 250 | 250 to 1000 | – | – | –
CNC(=O)c1c(-c2ccc(F)cc2)oc2ccc(-c3ccc(-c4cccc(CO)c4)c(C(=O)NCC(C)C)c3)cc12 | < 250 | < 250 | – | – | –
CNC(=O)c1c(-c2ccc(F)cc2)oc2ccc(-c3ccc(C(=O)OC(C)(C)C)cc3)cc12 | – | – | > 10000 | > 10000 | –
CNC(=O)c1c(-c2ccc(F)cc2)oc2ccc(-c3cccc(C(=O)N[C@@H](C)C(=O)OC)c3)cc12 | – | – | < 250 | 1000 to 10000 | –
CNC(=O)c1c(-c2ccc(F)cc2)oc2ccc(-c3cccc(C(=O)N4CCC[C@H]4CO)c3)cc12 | – | – | 250 to 1000 | 1000 to 10000 | –
CNC(=O)c1c(-c2ccc(F)cc2)oc2ccc(-c3cccc(C(=O)N4CCN(C)CC4)c3)cc12 | – | – | > 10000 | > 10000 | –
CNC(=O)c1c(-c2ccc(F)cc2)oc2ccc(-c3cc(C(=O)NC4(c5ccncc5)CC4)ccc3C)cc12 [drawing 501] | < 250 | < 250 | – | – | –
CNC(=O)c1c(-c2ccc(F)cc2)oc2ccc(-c3cc(C(=O)NCC(C)C)ccc3OCCc3ccc(O)cc3)cc12 | 250 to 1000 | 250 to 1000 | – | – | –
CNC(=O)c1c(-c2ccc(F)cc2)oc2ccc(-c3cc(C(=O)NC4(c5nnc(-c6ccc(Cl)cc6)[nH]5)CC4)ccc3C)cc12 | 250 to 1000 | < 250 | – | – | –
CNC(=O)c1c(-c2ccc(F)cc2)oc2ccc(-c3cc(C(=O)NCC(C)C)ccc3OC(F)F)cc12 | < 250 | < 250 | – | – | –
CNC(=O)c1c(-c2ccc(F)cc2)oc2ccc(-c3ccc(C(=O)NCCc4ccc(OC)cc4)cc3)cc12 | – | – | > 10000 | > 10000 | –
CNC(=O)c1c(-c2ccc(F)cc2)oc2ccc(-c3ccc(-c4ccccc4COC)c(C(=O)NCC(C)C)c3)cc12 | 250 to 1000 | < 250 | – | – | –
CNC(=O)c1c(-c2ccc(F)cc2)oc2ccc(-c3cccc(C(=O)N4CCCC4c4ccccn4)c3)cc12 (stereo not drawn) | – | – | 250 to 1000 | 250 to 1000 | –
CNC(=O)c1c(-c2ccc(F)cc2)oc2ccc(-c3cc(C(=O)NCC(C)C)ccc3OCCCN)cc12 | < 250 | < 250 | – | – | –
CCCC(CCC)NC(=O)c1cccc(-c2ccc3oc(-c4ccc(F)cc4)c(C(=O)NC)c3c2)c1 | – | – | > 400 | 1000 to 10000 | –
CNC(=O)c1c(-c2ccc(F)cc2)oc2cc(N)c(-c3cc(C(=O)NC4(c5ccccc5)CC4)ccc3C)cc12 | < 250 | < 250 | – | – | –
CNC(=O)c1c(-c2ccc(F)cc2)oc2ccc(-c3cc(C(=O)NC4(c5ncccn5)CC4)c(OC)cc3C)c(F)c12 | < 250 | < 250 | – | – | –
CNC(=O)c1c(-c2ccc(F)cc2)oc2ccc(-c3cccc(C(=O)O)c3)cc12 | – | – | 1000 to 10000 | > 10000 | –
CNC(=O)c1c(-c2ccc(F)cc2)oc2ccc(-c3cccc(C(=O)NC(CCO)c4ccccc4)c3)cc12 (stereo not drawn) | – | – | < 250 | 250 to 1000 | –
CNC(=O)c1c(-c2ccc(F)cc2)oc2ccc(-c3c(C)ccc(C(=O)O)c3OC)cc12 | 1000 to 10000 | > 10000 | – | – | –
CCNC(=O)c1cccc(-c2ccc3oc(-c4ccc(F)cc4)c(C(=O)NC)c3c2)c1 | – | – | 250 to 1000 | 250 to 1000 | –
CNC(=O)c1c(-c2ccc(F)cc2)oc2ccc(-c3cc(C(=O)NC4(c5ccccn5)CC4)c(O)cc3Cl)cc12 | < 250 | 250 to 1000 | – | – | –
CNC(=O)c1c(-c2ccc(F)cc2)oc2ccc(-c3sccc3C(=O)O)cc12 | – | – | > 10000 | > 10000 | –

Compound | IC50 ([1]; Table 1b) [nM] | EC50 ([2]; Table 1b) [nM] | IC50 ([1]; Table 1a) [nM] | EC50 ([2]; Table 1a) [nM] | further results
CNC(=O)c1c(-c2ccc(F)cc2)oc2ccc(-c3ccc(-c4ccccc4Cl)c(C(=O)NCC(C)C)c3)cc12 | < 250 | < 250 | – | – | –
CNC(=O)c1c(-c2ccc(F)cc2)oc2ccc(-c3cccc(C(=O)Nc4ccc(O)nc4)c3)cc12 | – | – | 1000 to 10000 | 1000 to 10000 | –
CNC(=O)c1c(-c2ccc(F)cc2)oc2ccc(-c3cccc(C(=O)NC4CCC4)c3)cc12 | – | – | < 250 | < 250 | –
CNC(=O)c1c(-c2ccc(F)cc2)oc2ccc(-c3ccc(F)c(C(=O)O)c3)cc12 | – | – | 1000 to 10000 | > 10000 | –
CNC(=O)c1c(-c2ccc(F)cc2)oc2ccc(-c3ccc(C(F)(F)F)c(Cl)c3)cc12 | – | – | > 10000 | > 1230 | –
CNC(=O)c1c(-c2ccc(F)cc2)oc2ccc(-c3cc(C(=O)NC4(c5nnc(-c6ccccn6)[nH]5)CC4)ccc3C)cc12 | < 250 | < 250 | – | – | –
CNC(=O)c1c(-c2ccc(F)cc2)oc2ccc(-c3cccc(C(=O)NC4(c5ccccc5)CC4)c3)cc12 [drawing 67] | – | – | < 250 | < 250 | –
CNC(=O)c1c(-c2ccc(F)cc2)oc2ccc(-c3cc(C(=O)NCC(C)C)ccc3OCCC3CNCCO3)cc12 (stereo not drawn) [drawing 415] | < 250 | < 250 | – | – | –
CNC(=O)c1c(-c2ccc(F)cc2)oc2ccc(-c3cccc(C(=O)Nc4cccc(C)c4)c3)cc12 | – | – | 250 to 1000 | 250 to 1000 | –
CNC(=O)c1c(-c2ccc(F)cc2)oc2ccc(-c3cc(OCCOC)cc(C(=O)NCC(C)C)c3)cc12 | > 500 | 1000 to 10000 | – | – | –
CNC(=O)c1c(-c2ccc(F)cc2)oc2ccc(-c3ccc(-c4ccnc(N)c4)c(C(=O)NCC(C)C)c3)cc12 | < 20 | < 250 | – | – | –
CCC(CC)(NC(=O)c1ccc(Cl)c(-c2ccc3oc(-c4ccc(F)cc4)c(C(=O)NC)c3c2)c1)c1ccccc1 | < 250 | < 250 | – | – | –
CNC(=O)c1c(-c2ccc(F)cc2)oc2ccc(-c3cc(C(=O)NCC(C)C)ccc3OCCC(N)=O)cc12 | > 10000 | > 10000 | – | – | –
CCOC(=O)[C@@H]1CCCN1C(=O)c1cccc(-c2ccc3oc(-c4ccc(F)cc4)c(C(=O)NC)c3c2)c1 | – | – | 1000 to 10000 | > 10000 | –
CNC(=O)c1c(-c2ccc(F)cc2)oc2ccc(-c3cc(C(=O)NC4(c5ncc(C)o5)CC4)c(OC)cc3C)cc12 | – | – | – | – | IC50 ([1]; Table 1d (class symbols)): < 20 nM; EC50 ([2]; 24 h, Table 1d (class symbols)): 1 to 250 nM
CNC(=O)c1c(-c2ccc(F)cc2)oc2ccc(-c3ccc(-c4cccc(CC#N)c4)c(C(=O)NCC(C)C)c3)cc12 | < 250 | < 250 | – | – | –
CNC(=O)c1c(-c2ccc(F)cc2)oc2ccc(-c3cccc(C(=O)NCC4CCCO4)c3)cc12 (stereo not drawn) | – | – | < 250 | 250 to 1000 | –
CNC(=O)c1c(-c2ccc(F)cc2)oc2ccc(-c3cccc(C(=O)NCC(C)C)c3)cc12 | – | – | < 250 | < 250 | –
CNC(=O)c1c(-c2ccc(F)cc2)oc2ccc(-c3cccc(C(=O)NC(C)(C)c4ccccc4)c3)cc12 | – | – | < 250 | < 250 | –
CNC(=O)c1c(-c2ccc(F)cc2)oc2ccc(-c3cc(C(=O)NC4(c5ccccn5)CC4)ccc3C)cc12 [drawing 606] | – | – | – | – | IC50 ([1]; untitled table after Table 1b): 8.6 nM; EC50 ([2]; untitled table after Table 1b, values without asterisk): 1.95 nM
CNC(=O)c1c(-c2ccc(F)cc2)oc2ccc(-c3ccccc3/C=C/C(=O)O)cc12 | – | – | 1000 to 10000 | > 10000 | –
CNC(=O)c1c(-c2ccc(F)cc2)oc2ccc(-c3cc(OCc4cc(C)on4)cc(C(=O)NCC(C)C)c3)cc12 | > 1390 | 1000 to 10000 | – | – | –
CNC(=O)c1c(-c2ccc(F)cc2)oc2cc([N+](=O)[O-])c(-c3cccc(C(=O)NCC(C)C)c3)cc12 | < 250 | < 250 | – | – | –
CNC(=O)c1c(-c2ccc(F)cc2)oc2ccc(-c3ccc(Cl)c(C(=O)NCC(C)C)c3)cc12 | – | – | 1000 to 10000 | 1000 to 10000 | –
CNC(=O)c1c(-c2ccc(F)cc2)oc2ccc(-c3cccc(C(=O)NCCN(C)C)c3)cc12 | – | – | 1000 to 10000 | 1000 to 10000 | –
